25 molecules from BindingDB's records for doi:10.7270/Q2X928QK (University of Pittsburgh, 2007) can be followed below.

For the experiment, the target named is T1, M-phase inducer phosphatase 2 (Homo sapiens, UniProt P30305).
T1 sequence (P30305 whole entry): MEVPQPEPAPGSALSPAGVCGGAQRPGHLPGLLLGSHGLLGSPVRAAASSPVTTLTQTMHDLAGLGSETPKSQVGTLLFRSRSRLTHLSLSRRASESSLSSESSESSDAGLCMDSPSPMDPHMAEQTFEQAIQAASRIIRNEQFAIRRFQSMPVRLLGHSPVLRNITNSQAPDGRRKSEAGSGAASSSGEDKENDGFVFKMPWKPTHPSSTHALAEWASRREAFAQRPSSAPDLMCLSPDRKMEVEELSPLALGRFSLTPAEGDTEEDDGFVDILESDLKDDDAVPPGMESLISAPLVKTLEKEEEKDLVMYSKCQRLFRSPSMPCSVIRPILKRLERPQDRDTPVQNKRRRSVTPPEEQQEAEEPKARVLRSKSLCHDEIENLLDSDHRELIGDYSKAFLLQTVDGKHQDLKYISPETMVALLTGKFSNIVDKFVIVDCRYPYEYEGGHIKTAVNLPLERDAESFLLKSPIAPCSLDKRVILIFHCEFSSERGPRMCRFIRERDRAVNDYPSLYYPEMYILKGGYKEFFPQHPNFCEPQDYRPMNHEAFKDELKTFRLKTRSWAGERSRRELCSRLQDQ
Put plainly: Cdc25B phosphatase inhibitors with catalase present, dose response, biochemical, probe assessment (AID 668).
As to `O=C(Nc1ccc2nc(-c3ccco3)c(-c3ccco3)nc2c1)N1CCCCCC1`, the IC50 amounted to 22.4 µM.

Molecule `Cc1ccc2c(c1C)NC(C(=O)O)C1CC=CC21` (stereo not given) showed an IC50 of 7.12 µM.

In the case of `O=C(O)C1Nc2c(O)cccc2C2C=CCC12` (stereo not given), inhibition was half-maximal at 11 µM (IC50). This IC50 lies about 1.5-fold higher than the previous one.

For `Cn1ncnc2c(=O)n(C)c(=O)nc1-2`, the IC50 stood at 23 µM.

`[O-]/[N+](=C\c1ccncc1)c1ccccc1` yielded an IC50 above 50 µM.

Take `O=C1C=Cc2ccccc2C1=O` [1,2-dihydronaphthalene-1,2-dione]: the IC50 turned out to be 25.4 µM.

`CCn1nc(-c2ccccc2)nc2c(=O)n(C)c(=O)nc1-2` [1-Ethyl-6-methyl-3-phenyl-1H-pyrimido[5,4-e][1,2,4]triazine-5,7-dione] had an IC50 of 20 µM.

`[O-]/[N+](=C\c1ccc(OC(F)F)cc1)c1ccccc1` [1-[4-(difluoromethoxy)phenyl]-N-phenylmethanimine oxide] came in with a concentration for half-maximal inhibition (IC50) above 50 µM.

With `CCn1nc(-c2cccs2)nc2c(=O)n(C)c(=O)nc1-2` [1-ethyl-6-methyl-3-thiophen-2-yl-pyrimido[5,4-e][1,2,4]triazine-5,7-dione], the half-maximal inhibitory concentration (IC50) was above 50 µM.

Consider `O=C1Cc2ccccc2C(=O)N1CCc1ccccc1` [2-(2-phenylethyl)-4H-isoquinoline-1,3-dione], for which inhibition was half-maximal at 48.9 µM (IC50).

Turning to `N#Cc1c(N)sc(=S)c2c1CCN(Cc1ccccc1)C2` [3-Amino-7-benzyl-1-thioxo-5,6,7,8-tetrahydro-1H-thiopyrano[3,4-c]pyridine-4-carbonitrile], the IC50 turned out to be 14.1 µM.

Turning to `Cc1ccccc1Nc1cc2ccccc2c(O)n1` [3-[(2-methylphenyl)amino]-2H-isoquinolin-1-one], the IC50 is 45 µM.

As for `COc1ccc(Br)cc1C=c1sc2nc(-c3ccco3)nn2c1=O` [5-[(5-bromanyl-2-methoxy-phenyl)methylidene]-2-(furan-2-yl)-[1,3]thiazolo[3,2-b][1,2,4]triazol-6-one], the IC50 came out at 4.2 µM.

The molecule `CC(=O)Nc1cc(OC(C)=O)c2nonc2c1OC(C)=O` [Acetic acid 7-acetoxy-5-acetylamino-benzo[1,2,5]oxadiazol-4-yl ester] showed a half-inhibitory concentration (IC50) above 50 µM.

Consider `CCOC(=O)C(C(=O)OCC)c1cc(Br)c2noc3c2c1C(=O)c1ccccc1-3` [MLS000038842], for which the IC50 was above 50 µM.

Regarding `Oc1nc(Nc2ccccc2)cc2ccccc12` [MLS000043701], the IC50 stood at 45.8 µM.

In turn, `Cc1c(N=c2c(=O)c3ccccc3c2=O)c(=O)n(-c2ccccc2)n1C` [MLS000105950] returned an IC50 above 50 µM.

For `CCOc1ccc2noc3c2c1C(=O)c1ccccc1-3` [MLS000106837], the IC50 was above 50 µM.

For the molecule `COc1ccc2noc3c2c1C(=O)c1ccccc1-3` [MLS000106874], the 50% inhibitory concentration (IC50) is above 50 µM.

In the case of `Cc1ccc2c(c1)C1C=CCC1C(C(=O)O)N2` (stereo not given) [MLS-0067149.0001], the IC50 is 7.35 µM.

As to `O=C(NC1(O)C(=O)c2ccccc2C1=O)c1ccccc1` [N-(2-hydroxy-1,3-dioxo-2-indenyl)benzamide], the 50% inhibitory concentration (IC50) was above 50 µM.

The molecule `COc1cccc2c1NC(C(=O)O)C1CC=CC21` (stereo not given) [SMR000009698] had an IC50 of 6.18 µM.

In turn, `O=C(OC1CCCCC1)c1ccc2c(c1)C1C=CCC1C(C(=O)O)N2` (stereo not given) [SMR000019385] registered an IC50 of 3.8 µM.

The molecule `N#Cc1c(N2CCCC2)nc(N)c2c(N)nc(N3CCCC3)cc12` [SMR000061605] displayed an IC50 above 50 µM.

In the case of `Nc1cccc2cnccc12` [isoquinolin-5-amine], the IC50 is above 50 µM.

For orientation: IC50 means the concentration needed to halve the response being measured. A low value points to inhibition by little substance.
